Reference: patent US12648917B2 (University of Florida Research Foundation, Incorporated, priority 2017, dated 2026)
“Also recorded” adds a separate entry of the source.

How the values were obtained:
RAN protein translation = assay: RAN protein levels by protein blot in HEK293T cells transfected with repeat expansion constructs; type: cell-based; conditions: for RAN polyGP protein levels, dose dependence: HEK293T cells transiently transfected with G4C2 expansion constructs (FIG. 4)
Text: . […] Protein blots were run on protein lysates from HEK293T cells transfected with various repeat expansion constructs shown in FIG. 1A. In FIG. 1B, the lanes labeled KMQ, show: RAN poly-Ser-Flag, RAN poly-Ala-HA, ATG initiated polyGln-Myc. In FIG. 1B, the lanes labeled KMQ has a methionine encoding ATG immediately 5′ to the CAG repeat expansion and located within the polyGln reading frame. The lanes labeled KKQ indicate the KKQ vector contains a CAG expansion without an AUG initiation codon, and indicates: RAN polySer-Flag, RAN polyAla-HA, RAN polyGln-Myc. These constructs contain epitope tags that are incorporated into the C-terminal regions of the ATG-initiated poly-Gln and non-ATG initiated RAN proteins (poly-Gln, poly-Leu-Pro-Ala-Cys and poly-Gly-Pro) which are expressed across these repeat expansions. The lane labeled CCTG expresses the following RAN proteins: RAN polyLPAC-Flag, RAN polyLPAC-HA, RAN polyLPAC-Myc. The lane labeled G4C2 is designed to detect the following RAN proteins: RAN polyGP-Flag, RAN polyGR-HA, RAN polyGA-Myc. […].
(§1) HEK293T cells were cultured in DMEM medium supplemented with 10% fetal bovine serum and incubated at 37° C. in a humid atmosphere containing 5% CO2. DNA transfections were performed using Lipofectamine 2000 Reagent (Invitrogen) according to the manufacturer's instructions.
(§2) Transfected cells in each well of a six-well tissue-culture plate were rinsed with PBS and lysed in 300 μL RIPA buffer with protease inhibitor cocktail for 45 min on ice. DNA was sheared by passage through a 21-gauge needle. The cell lysates were centrifuged at 16,000×g for 15 min at 4° C., and the supernatant was collected. The protein concentration of the cell lysate was determined using the protein assay dye reagent (Bio-Rad). Twenty micrograms of protein were separated in a 4-12% NuPAGE Bis-Tris gel (Invitrogen) and transferred to a nitrocellulose membrane (Amersham). The membrane was blocked in 5% dry milk in PBS containing 0.05% Tween-20 (PBS-T) and probed with the anti-Flag (1:2000), anti-Myc (1:1000), anti-HA (1:1000), or rabbit polyclonal antibodies (1:1000) in blocking solution. After the membrane was incubated with anti-rabbit or anti-mouse HRP-conjugated secondary antibody (Amersham), bands were visualized by the ECL plus Western Blotting Detection System (Amersham).
. Transient transfections of expansion constructs treated with or without metformin were performed. […]. […] Protein blots were run on protein lysates from HEK293T cells transfected with various repeat expansion constructs shown in FIG. 5A. In FIG. 5B, the lanes labeled KMQ, show: RAN poly-Ser-Flag, RAN poly-Ala-HA, ATG initiated polyGln-Myc. In FIG. 5B the lanes labeled KMQ has a methionine encoding ATG immediately 5′ to the CAG repeat expansion and located within the polyGln reading frame. The lanes labeled KKQ indicate the KKQ vector contains a CAG expansion without an AUG initiation codon, and indicates: RAN polySer-Flag, RAN polyAla-HA, RAN polyGln-Myc. These constructs contain epitope tags that are incorporated into the C-terminal regions of the ATG-initiated poly-Gln and non-ATG initiated RAN proteins (poly-Gln, poly-Leu-Pro-Ala-Cys and poly-Gly-Pro) which are expressed across these repeat expansions. The lane labeled CCTG expresses the following RAN proteins: RAN polyLPAC-Flag, RAN polyLPAC-HA, RAN polyLPAC-Myc. The lane labeled G4C2 is designed to detect the following RAN proteins: RAN polyGP-Flag, RAN polyGR-HA, RAN polyGA-Myc. […].

PKR = biological target: T1, PKR (Homo sapiens, UniProt P19525); assay: p-PKR (T446 and T451) levels by protein blot in HEK293T cells transfected with repeat expansion constructs; type: cell-based; conditions: for G4C2 repeat-expansion induced p-PKR (T446 and T451) levels, dose dependence: cells transfected with a G4C2 repeat expansion construct (FIG. 4)
T1 construct: endogenous in cells; host or cells: HEK293T
Method: as §1, §2
[…]. Transient transfections of expansion constructs treated with or without metformin were performed. […].

GA aggregates = GA aggregates in retrosplenial cortex of C9-BAC mice; type: in vivo, mouse; conditions: for reduction in the number of GA aggregates compared to C9 controls: 5 mg/ml in drinking water
Method: (§3) In Group A animals, treatment began at 2 months of age, before the onset of overt behavioral or pathological phenotypes. In Group B, smaller cohorts of animals (n=8/group) were treated beginning at 6 months, an age at which behavioral phenotypes are evident. DigiGait analyses of Group A mice at 5 months identified eight DigiGait parameters that differed between untreated C9 and NT cohorts. […]. […] […].
Cancer Prev Res (Phila) 3, 1066-1076, doi: 10.1158/1940-6207. CAPR-10-0055 (2010)). In Group A animals, three months of treatment began at 2 months of age, before the onset of overt behavioral or pathological phenotypes. In Group B, smaller cohorts of animals were treated for four months beginning at 6 months, an age at which behavioral phenotypes are evident^12.

C9-BAC mice = assay: Open field analysis (center time) in C9-BAC mice; type: in vivo, mouse; conditions: Group A metformin-treated C9 mice compared to untreated C9 mice
Method: Open field analysis. Open field analysis was performed by testing mouse behavior during a 30 min session in a completely dark open chamber (17″×17″) (Med Associates). Approximately two hours before the start of analysis, mice were placed in the testing room to allow for acclimation to the room. Mice were then placed in the center of the darkened activity-monitoring chamber. The trace path and center time was recorded and analyzed with Activity Monitor (MED associates, Inc.) software.
as §3
DigiGait analyses of Group A mice at 5 months identified eight parameters that differed between untreated C9 and NT cohorts. […]. […]. […]

[1] = tested on: glycine-proline (GP) RAN protein; assay: GP RAN protein levels in leukocyte lysates from peripheral blood of a C9ORF72 expansion-positive subject; type: in vivo; conditions: single human subject with C9ORF72 repeat expansion, 500 or 1000 mg/day Metformin Hydrochloride Extended Release Tablets, 10 to 30 days after treatment
Text: […]. […] […]. […] […]

[2] = metformin 5 mg/ml in the drinking water; previously shown, comparable to human doses of 20 mg/kg/day; cited from earlier work
[3] = tested on: glial fibrillary acidic protein (GFAP); assay: IHC staining for GFAP (neuroinflammation, reactive gliosis) in C9-BAC mice; type: in vivo, mouse

T1 sequence (P19525 whole entry): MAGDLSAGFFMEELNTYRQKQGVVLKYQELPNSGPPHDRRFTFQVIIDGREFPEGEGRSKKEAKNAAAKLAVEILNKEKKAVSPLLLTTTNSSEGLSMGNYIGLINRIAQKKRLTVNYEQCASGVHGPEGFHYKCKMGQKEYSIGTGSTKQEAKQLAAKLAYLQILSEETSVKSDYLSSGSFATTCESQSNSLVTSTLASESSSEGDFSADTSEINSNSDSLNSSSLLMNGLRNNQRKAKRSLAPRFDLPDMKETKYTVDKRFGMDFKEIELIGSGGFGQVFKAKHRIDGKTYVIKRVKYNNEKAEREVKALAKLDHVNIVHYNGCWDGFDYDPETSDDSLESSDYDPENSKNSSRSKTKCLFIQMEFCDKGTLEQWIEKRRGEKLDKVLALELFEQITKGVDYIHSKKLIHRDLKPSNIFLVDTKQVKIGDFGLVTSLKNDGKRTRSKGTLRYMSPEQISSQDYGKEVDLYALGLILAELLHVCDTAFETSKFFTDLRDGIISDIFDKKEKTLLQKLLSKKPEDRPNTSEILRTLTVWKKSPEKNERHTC

| SMILES | RAN polyGP protein levels, dose dependence (RAN protein translation) | G4C2 repeat-expansion induced p-PKR (T446 and T451) levels, dose dependence (PKR) | RAN protein levels of poly-Ala (RAN protein translation; HEK293T cells transfected with CAG repeat expansion constructs, treated with metformin, protein blot) | RAN protein levels of poly-LPAC (all three reading frames) (RAN protein translation; HEK293T cells transfected with CCTG repeat expansion construct, treated with metformin, protein blot) | RAN protein levels of poly-GP (RAN protein translation; HEK293T cells transfected with G4C2 (GGGGCC) repeat expansion construct, treated with metformin, protein blot) | RAN protein levels / expression (RAN protein translation; HEK293T cells transiently transfected with CAG, CCTG, CAGG and G4C2 expansion constructs (FIG. 3A)) | reduction in the number of GA aggregates compared to C9 controls (GA aggregates; Group A (treated from 2 months of age, 3 months), P=0.01) [%] | reduction in the number of GA aggregates compared to C9 controls (GA aggregates; Group B (treated from 6 months of age), P=0.047) [%] | GA aggregates compared to untreated C9 controls, in words (GA aggregates; metformin in drinking water, Group A and Group B) | open field center time (anxiety-like behavior) (C9-BAC mice) | glycine-proline (GP) RAN protein levels compared to pretreatment levels [1] | p-PKR (T446 and T451) levels / PKR phosphorylation (PKR; cells transfected with repeat expansion constructs, with or without metformin (FIG. 3B, FIG. 6A)) | plasma levels [2] [µM] | GFAP staining / reactive gliosis compared to untreated C9 animals, in words ([3]; C9 metformin treated vs untreated C9 animals (Group A)) | reduction of GFAP staining compared to untreated C9 mice ([3]; Group A) [%] | reduction of GFAP staining compared to untreated C9 mice ([3]; Group B) [%] |
| --- | --- | --- | --- | --- | --- | --- | --- | --- | --- | --- | --- | --- | --- | --- | --- | --- |
| CCCCNC(=N)NC(=N)N [buformin] | reduce GP RAN protein levels in a dose-dependent manner | reduce levels of p-PKR | – | – | – | – | – | – | – | – | – | – | – | – | – | – |
| CN(C)C(=N)NC(=N)N [metformin] | reduce GP RAN protein levels in a dose-dependent manner | reduce levels of p-PKR | reduced; also recorded: decreases | reduced; also recorded: decreases | reduced; also recorded: decreases | decreases RAN protein levels; also recorded: reduces RAN protein expression | 38 | 37 | decreased numbers of GA aggregates; also recorded: reduction in GA aggregates | increased center time; also recorded: normalization or increased center time; also recorded: normalized | Dose dependent reduction; also recorded: Dose-dependent reduction | decreases PKR phosphorylation; also recorded: reduces levels of p-PKR | ~10 | significantly reduced; also recorded: decreased levels of reactive gliosis | 79 | 74 |
| [H]/N=C(/N)N/C(=N/[H])NCCc1ccccc1 [phenformin] | reduce GP RAN protein levels in a dose-dependent manner | reduce levels of p-PKR | – | – | – | – | – | – | – | – | – | – | – | – | – | – |
